Some test systems named below: NCI-H23 lung; HT29 colon; BT-549 breast; A549 NSCLC; ACHN renal; NCI-H226 lung; UACC-257 melanoma; CAKI-1 renal; HCT-116 colon; SR leukemia.
Common to all, as to assay: inhibition of tumour cell growth, NCI panel, 48 h

The values that follow come from PubChem BioAssay (NCI).

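Grown in 96-well plates, cells were treated for 48 hours with each compound at five concentrations. Insufficient inhibition: endpoint recorded as highest concentration tested. GI50 = concentration required for 50% inhibition of growth. TGI denotes the concentration required for complete inhibition of growth.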

As to `CCOc1cc2c(cc1O)/C(=N\O)C[C@@H]1[C@@H]2CC[C@]2(C)[C@@H](O)CC[C@@H]12`, the GI50 with NCI-H23 lung was 0.004 µM; in the assay on HT29 colon it was 3.94 µM; in the assay on BT-549 breast, 0.0864 µM; with A549 NSCLC, 0.0854 µM; in the assay on ACHN renal it was 0.024 µM; with NCI-H226 lung, 0.258 µM. The TGI in the assay with HT29 colon was > 100 µM; in the assay with BT-549 breast, 22.5 µM; in the assay on A549 NSCLC it was > 100 µM; in the assay on ACHN renal, > 49.5 µM; in the assay with NCI-H226 lung, > 100 µM.
For `C/C1=C/C2=CC(C)C[C@@H]2C(=O)[C@]2(C)C(=O)CC(C)(C)[C@H]2CC1=O` (stereo partly specified), the TGI in the assay on NCI-H23 lung, in the assay with HT29 colon, in the assay on UACC-257 melanoma, in the assay with BT-549 breast, with A549 NSCLC and with ACHN renal was > 50 µM throughout. For the same compound, the TGI with CAKI-1 renal, in the assay on HCT-116 colon and with NCI-H226 lung was > 50 µM in each case.
Turning to `COc1cnc2c(c1)C(=O)c1c-2n(CCCN2CCC(O)CC2)c(=O)c2cc(F)ccc12`, the GI50 was 0.292 µM in the assay with NCI-H23 lung; 0.0806 µM in the assay with SR leukemia; 0.296 µM with UACC-257 melanoma; 0.697 µM with BT-549 breast; 0.0899 µM in the assay on A549 NSCLC; 0.0902 µM with ACHN renal. For the same compound, the values for the GI50 in the assay with HCT-116 colon and in the assay with NCI-H226 lung were 0.0895 µM and 0.135 µM, respectively. For the same compound, the TGI amounted to 1.32 µM in the assay with NCI-H23 lung; 1.19 µM in the assay with SR leukemia; 1.81 µM in the assay on UACC-257 melanoma; 14.4 µM in the assay with BT-549 breast; 0.32 µM in the assay on A549 NSCLC; 0.332 µM in the assay on ACHN renal. For the same compound, the TGI was 0.591 µM in the assay with HCT-116 colon and 0.307 µM in the assay with NCI-H226 lung.
Turning to `Cc1cc(=O)[nH]o1`, the TGI in the assay on NCI-H23 lung, in the assay with HT29 colon, in the assay with UACC-257 melanoma, with BT-549 breast, in the assay with A549 NSCLC and in the assay on ACHN renal was > 100 µM in each case. In addition, the TGI with CAKI-1 renal, with HCT-116 colon and in the assay on NCI-H226 lung was > 100 µM in each case.
Take `CC(C)(C)c1[nH]cnc1/C=c1\[nH]c(=O)/c(=C/c2ccccc2)[nH]c1=O`: the GI50 in the assay with NCI-H23 lung is 0.03 µM; in the assay with HT29 colon, < 0.01 µM; in the assay with UACC-257 melanoma, 6.32 µM; with BT-549 breast it was 0.0139 µM; in the assay on A549 NSCLC it was 0.0181 µM; with ACHN renal, < 0.01 µM. The GI50 in the assay with CAKI-1 renal is < 0.01 µM; with HCT-116 colon, < 0.01 µM; with NCI-H226 lung, 0.0275 µM. Also, the TGI in the assay on NCI-H23 lung stood at 35.2 µM; in the assay on HT29 colon it was 9.44 µM; with UACC-257 melanoma, 22.6 µM; in the assay with BT-549 breast, 12.1 µM; in the assay on A549 NSCLC, 41.5 µM; with ACHN renal, 35.7 µM. Moreover, the values for the TGI with CAKI-1 renal, with HCT-116 colon and in the assay with NCI-H226 lung were 32.7 µM, 15.4 µM and 3.69 µM, respectively.
On to `Cn1c(O)c(C(/C=C/c2ccccc2)=NCCN=C(/C=C/c2ccccc2)c2c(O)n(C)c(=O)n(C)c2=O)c(=O)n(C)c1=O`, for which the GI50 with NCI-H23 lung is 15 µM; with HT29 colon, 16.9 µM; with UACC-257 melanoma, 23.5 µM; in the assay on BT-549 breast it was 10.2 µM; in the assay on A549 NSCLC, 16.7 µM; in the assay with ACHN renal it was 21.2 µM. Moreover, the GI50 with CAKI-1 renal is 19.9 µM; with HCT-116 colon it was 13.6 µM; in the assay on NCI-H226 lung it was 24.6 µM. For the same compound, the TGI is > 50 µM with NCI-H23 lung; > 50 µM with HT29 colon; > 50 µM in the assay with UACC-257 melanoma; 29.5 µM in the assay on BT-549 breast; > 50 µM with A549 NSCLC; > 50 µM in the assay on ACHN renal. Besides, the TGI with CAKI-1 renal, in the assay on HCT-116 colon and in the assay with NCI-H226 lung was > 50 µM throughout.
For `CC(C)(C#N)c1cc(F)cc(C(=O)Nc2cc(Nc3ncccc3-c3ncnc4nc[nH]c34)ccc2F)c1`, the GI50 with NCI-H23 lung is 0.501 µM; in the assay with SR leukemia it was 7.31 µM; in the assay on HT29 colon it was 0.151 µM; in the assay on BT-549 breast, 3.63 µM; in the assay with A549 NSCLC, 5.49 µM; with ACHN renal it was 1.85 µM. The GI50 is 0.212 µM in the assay with HCT-116 colon and 0.804 µM with NCI-H226 lung. Also, the TGI with NCI-H23 lung, with SR leukemia, with HT29 colon, in the assay on BT-549 breast, with A549 NSCLC and in the assay with ACHN renal was > 10 µM in each case. Besides, the TGI in the assay on HCT-116 colon and in the assay on NCI-H226 lung was > 10 µM throughout.
`CC1(C)CCc2cc3c(cc2O1)OCC1c2cc4c(cc2OC31)OCO4` (stereo unspecified): the TGI in the assay with NCI-H23 lung, with SR leukemia, with HT29 colon, in the assay with UACC-257 melanoma, with A549 NSCLC and with ACHN renal was > 100 µM each time. Further, the TGI in the assay on CAKI-1 renal, in the assay on HCT-116 colon and with NCI-H226 lung was > 100 µM in each case.
